Like-named read-outs stand apart in the source and are kept apart here.
System: PANC-1
Experiment: Cell viability (CellTiter-Blue, 72 h), PANC-1 pancreatic cancer cells
Type: cell-based
Details: Homo sapiens, PANC-1, 1% FBS
Description: The following cell lines were tested in this example: Lung Cancer (A549, NCI-H460); Pancreatic cancer (PANC1, Mia-Pa-Ca-2); Melanoma (WM115, A375); Ovarian cancer (OVCAR3, SKOV3); Gastric cancer (MKN45, HGC-27); Renal cancer (ACHN) and Bladder Cancer (RT112).
Each tumour cell line was maintained in vitro in RPMI 1640+10% heat inactivated FBS and 2 mM L-glutamine (growth media) at 37° C. in 5% CO2 and humidified conditions. The cells were harvested, washed, re-suspended into growth medium and counted. The cells were re-suspended into assay media (RPMI 1640+5% heat inactivated FBS+ and 2 mM L-glutamine) at 4×10^4 cells/ml (dependent upon cell type) and plated into the middle 240 wells of 384 well tissue culture plates (Corning CellBind, black-wall plates) 25 μl/well aliquots; 50 μl of growth media was aliquoted into the outer wells. There were 3 plates for each cell line.
The plates were incubated overnight at 37° C., in 5% humidified CO2.
The phytocannabinoid test compounds were prepared in 100% DMSO vehicle at a stock concentration of 20 and 40 mM.
Starting with the 20 mM stock in DMSO, this was serially diluted (2 fold) in DMSO in a 96-well plate, to 20 (no dilution), 10, 5, 2.5, 1.25, 0.625, 0.315, 0.157 and […]. Following this, 10 ul of each compound dilution was diluted into 990 ul of 1% (v/v) FBS media in a deep well block making the final concentrations of 200, 100, 50, 25, 12.5, 6.25, 3.125, 1.56 and 0.79 μM (2× final assay concentrations and 1% DMSO).
An equal volume of each cannabinoid in the combination (stock concentration 40 mM) was mixed together to make a stock of 20 mM of each cannabinoid in DMSO. This was serially diluted (2 fold) in DMSO in a 96-well plate, to 20 (no dilution), 10, 5, 2.5, 1.25, 0.625, 0.315, 0.157 and […]. Following this, 10 ul of each combination dilution was diluted into 990 ul of 1% (v/v) FBS media in a deep well block making the final concentrations of 200, 100, 50, 25, 12.5, 6.25, 3.125, 1.56 and 0.79 μM (2× final assay concentrations and 1% DMSO).
Gemcitabine SOC was prepared in 100% DMSO to give a stock concentration of 20 mM. This was then serially diluted (3 fold) in DMSO in a 96-well plate, to 20 (no dilution), 6.6, 2.2, 0.741, 0.247, 0.082, 0.027, 0.009 and 0.003 mM. Following this, 10 ul of each dilution was further diluted into 990 ul of 1% (v/v) FBS media making the final concentrations of 200 (no dilution), 66.66, 22.22, 7.41, 2.47, 0.82, 0.27, 0.09, 0.03 μM (2× final assay concentrations and 1% DMSO).
The plates were incubated for 72 h at 37° C. in 5% humidified CO2. To develop the plates, at 72 h, 10 μl of CellTiter-Blue™ reagent was added to each test/blank well.
The plates were incubated at 37° C., 5% humidified CO2. Fluorescence was measured using a Flex II Station plate reader (570 nm excitation wavelength, 600 nm emission wavelength, 590 nm cut-off) after 3 h.
The phytocannabinoid compounds CBD, CBGA, CBG, CBDA, THCV and THC were tested on a panel of lung (A549, NCI-H460), pancreatic (PANC1, Mia-Pa-Ca-2), melanoma (WM115, A375), ovarian (OVCAR3, SKOV3), gastric (MKN45, HGC-27), renal (ACHN) and bladder (RT112) cancer cell lines according to the protocol for 72 h in media containing 1% FBS.
The IC50 values for each phytocannabinoid and combination of CBD with the other phytocannabinoids was calculated for each cell line. The raw data values expressed in relative fluorescent units were normalised to the vehicle for each individual plate and any reduction in fluorescence indicated a decrease in viability.
This calculation was as described in Example 1 above.

[1] = 72 h, read-out: Cell line IC50 value
[2] = read-out: Dm (median effect dose)

CCCCCc1cc(O)c2c(c1)OC(C)(C)[C@@H]1CCC(C)=C[C@@H]21 [THC, Tetrahydrocannabinol, reference compound]
IC50 [1]: 3 µM | IC50 [2]: 3.15 µM

C=C(C)[C@@H]1CCC(C)=C[C@H]1c1c(O)cc(CCCCC)cc1O [CBD, Cannabidiol]
IC50 [1]: 3 µM | IC50 [2]: 2.92 µM

C=C(C)[C@@H]1CCC(C)=C[C@H]1c1c(O)cc(CCCCC)c(C(=O)O)c1O [CBDA, Cannabidiolic acid]
IC50 [1]: 13.1 µM | IC50 [2]: 12.6 µM

CCCCCc1cc(O)c(C/C=C(\C)CCC=C(C)C)c(O)c1C(=O)O [CBGA, Cannabigerolic acid]
IC50 [1]: 8.5 µM | IC50 [2]: 8.82 µM

CCCCCc1cc(O)c(C/C=C(\C)CCC=C(C)C)c(O)c1 [CBG, Cannabigerol]
IC50 [1]: 3.1 µM | IC50 [2]: 2.88 µM

CCCc1cc(O)c2c(c1)OC(C)(C)[C@@H]1CCC(C)=C[C@@H]21 [THCV, Tetrahydrocannabivarin]
IC50 [1]: 6.5 µM | IC50 [2]: 6.46 µM

Source: patent publication US9962341B2, “Active pharmaceutical ingredient (API) comprising cannabinoids for use in the treatment of cancer” (GW Pharma Limited, priority 2014, dated 2018)
